# Reference: patent US9200269B2, “β-glucuronidase inhibitor” (priority 2007, dated 2015)
# Tests used:
# [1] = target: T1, β-glucuronidase Type VII-A derived from Escherichia coli (Escherichia coli, UniProt P05804); test: Inhibition of β-glucuronidase activity (PNPG substrate, absorbance at 400 nm); assay type: biochemical; conditions: 1.6 units/mL enzyme, 37° C., 2 hours, pH 6.8
# T1 construct: purchased Sigma-Aldrich Corporation
# Experimental: 100 μL of a 2 mM PNPG aqueous solution, 40 μL of a 0.5 M phosphate buffer (pH 6.8), 38 μL of ion exchanged water and 2 μL of a 10 or 1 wt % dipropylene glycol (DPG) solution of various compounds or plant extracts were mixed in a bottle γ-ray sterilized in advance, and subsequently 20 μL of a β-glucuronidase aqueous solution adjusted to 16 units/mL was added, in order to allow the enzyme to react in a thermostat bath at 37° C. for 2 hours. Further, in the case of some of compounds, in addition to the above steps, the same experiment was performed using a 0.1 wt % DPG solution as well. As a result, the concentrations of the test compounds and plant extracts in the reaction solution were adjusted to 0.1, 0.01 and 0.001 wt %, respectively. Further, a product prepared by adding DPG in place of the above-mentioned compounds and plant extracts was used as a control, and a product prepared by adding ion exchanged water in place of an enzyme solution was used as a blank for each sample and control, and the respective products were allowed to react for 2 hours in the same manner. It should be noted that the plant extract sample was used as a solvent extract.
# The above-mentioned reaction solution was diluted with a 0.2 M glycine buffer (pH 10.4) and measured for its absorbance at a wavelength of 400 nm. The relative activity inhibition rate of a β-glucuronidase was determined by using the obtained measurement value in accordance with the following equation. Absorbance change of control=Absorbance of control−Absorbance of blank for each control Absorbance change of sample=Absorbance of sample−Absorbance of blank for each sample Activity inhibition rate (%)=[(Absorbance change of control−Absorbance change of sample)/Absorbance change of control]×100
# [2] = tested on: β-glucuronidase activity derived from microbial cells grown in the putrefied urine; test: Inhibition of β-glucuronidase activity derived from urine putrefying microbial cell (putrefied urine supernatant, PNPG); assay type: biochemical; conditions: 0.01 wt % in reaction solution; room temperature, 24 hours
# Experimental: A putrefied urine product, which was prepared by collecting 20 mL of a urine sample, dispensing the sample in a bottle which had been preliminarily subjected to γ-ray sterilization without performing any microbe removing operation and storing the resultant at room temperature for 7 days, was used. 1 mL of the putrefied urine was centrifuged at 10,000 rpm for 5 minutes, and separated into a microbial cell and a supernatant. The precipitated microbial cell was suspended in 0.5 mL of saline. The supernatant was subjected to sterilizing through a 0.2-μm filter.
# 250 μL of a 2 mM PNPG aqueous solution, 100 μL of a 0.5 M phosphate buffer (pH 6.8), […] of a 10 wt % 8-cyclohexadecen-1-one DPG solution and 100 μL of ion exchanged water were mixed in a bottle γ-ray sterilized in advance, and subsequently 50 μL of the putrefied urine supernatant sample in Reference Example 3 were added. The mixture was allowed to react at room temperature. […]
# The above-mentioned reaction solution immediately after the start of the reaction and after 24 hours of reaction was diluted with a 0.2 M glycine buffer (pH 10.4) and measured for its absorbance at a wavelength of 400 nm. A value obtained by subtracting the absorbance immediately after the start from the absorbance after 24 hours of reaction was used as an index of a β-glucuronidase activity.
# β-glucuronidase = target: T2, β-glucuronidase (Escherichia coli, UniProt P05804); test: Suppression of generation of urine odor in enzyme-added urine, sensory evaluation; conditions: 0.01 wt %; human urine plus enzyme, 25° C., 2 hours; six panelists
# T2 construct: purchased Sigma-Aldrich Corporation
# T2 sequence (P05804 whole entry): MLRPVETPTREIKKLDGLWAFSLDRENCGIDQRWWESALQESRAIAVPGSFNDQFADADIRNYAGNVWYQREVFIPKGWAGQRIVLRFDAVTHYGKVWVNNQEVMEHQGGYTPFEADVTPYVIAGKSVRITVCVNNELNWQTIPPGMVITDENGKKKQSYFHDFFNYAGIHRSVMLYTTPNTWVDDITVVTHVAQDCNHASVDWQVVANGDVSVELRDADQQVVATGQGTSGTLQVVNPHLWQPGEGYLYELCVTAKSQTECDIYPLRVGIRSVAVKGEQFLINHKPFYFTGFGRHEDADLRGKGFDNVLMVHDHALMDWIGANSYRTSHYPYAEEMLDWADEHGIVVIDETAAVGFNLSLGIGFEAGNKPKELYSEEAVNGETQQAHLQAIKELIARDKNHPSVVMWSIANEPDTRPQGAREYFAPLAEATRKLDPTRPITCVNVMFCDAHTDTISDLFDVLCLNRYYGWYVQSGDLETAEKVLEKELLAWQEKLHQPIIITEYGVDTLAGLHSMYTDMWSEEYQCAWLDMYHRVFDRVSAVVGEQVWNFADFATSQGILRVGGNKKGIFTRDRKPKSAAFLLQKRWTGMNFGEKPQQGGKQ
# Experimental: (§1) Sensory evaluation of odor was performed by six panelists, the evaluation was based on a six-level odor intensity indication method in which the odor intensity was indicated with an evaluation score of 0 to 5. In the evaluation score, “0” indicates no odor, “1” indicates odor which can be slightly perceived (detection threshold), “2” indicates odor which can be perceived to be urine odor but is weak (perception threshold), “3” indicates odor which can be easily perceived to be urine odor, “4” indicates strong urine odor, and “5” indicates extreme urine odor. The odor intensity was determined at an interval of 0.5.
# 360 μL of a human urine sample (a mixture of urine from five humans), which had been subjected to a microbe-removing operation with a 0.2-μm filter immediately after the collection, and […] of a 10 wt % 8-cyclohexadecen-1-one DPG solution were added to a bottle γ-ray sterilized in advance, and subsequently 40 μL of a β-glucuronidase aqueous solution adjusted to 20 units/mL was added and mixed. The mixture was incubated in a thermostat bath at 25° C. and allowed to react for 2 hours. The concentration of 8-cyclohexadecen-1-one in the reaction solution was 0.01 wt %. […]
# [3] = Urine catching pad urine addition test, urine odor intensity; design: species or system human; conditions: 30° C.
# Experimental: as §1
# Specifically, the urine catching pad was prepared by replacing only a water-absorbent polymer in the commercially available urine catching pad “Relief urine catching pad safe absorption (Anshin-Kyusyu)” (manufactured by Kao Corporation) with a water-absorbent polymer wherein the β-glucuronidase inhibitor of the present invention was added. The added amount of the inhibitor to the water-absorbent polymer was 1 wt. % with respect to the water-absorbent polymer, and was equivalent to 1.5 g/m^2 with respect to the urine catching pad.
# A urine addition test was performed by using test pieces having dimensions of 19 cm by 7 cm being cut out from the urine catching pad, and using a test piece containing no β-glucuronidase inhibitor as a blank. The test was performed as follows: 30 g of human urine (a mixture of urine from five humans) were added to these test pieces cut out from the urine catching pad, and the urine odor intensity after 1 hour, after 24 hours, and after 48 hours under preservation at 30° C. was evaluated by five panelists based on the six-level odor intensity indication method as described in the item (2) of Reference Example 2.
# [4] = six-level score 0 to 5, average of five panelists, inhibitor 1 wt. % of water-absorbent polymer, 30 g human urine
# T1 sequence (P05804 whole entry): as above
smiles,measurement,setting,value
"O=C1CCCCCCC=CCCCCCCC1 [8-Cyclohexadecen-1-one, 8-cyclohexadecen-1-one]",Inhibition rate (%) Concentration 0.001%,[1]; 0.001 wt % in reaction solution,95.8%
same,inhibition at 0.01 wt %,"[1]; 0.01 wt % in reaction solution, read-out: Inhibition rate (%) Concentration 0.01%",99.9%
same,inhibition at 0.1 wt %,"[1]; 0.1 wt % in reaction solution, read-out: Inhibition rate (%) Concentration 0.1%",100%
same,"β-glucuronidase activity of putrefied urine supernatant (result in words, FIG. 4)",[2],suppressed the β-glucuronidase activity
same,"Generation of urine odor, sensory evaluation (result in words, FIG. 5)",β-glucuronidase,sensuously suppressed the generation of urine odor
same,Suppression of the increase of urine odor in urine catching pad compared to the blank (result in words),[3]; after 24 or 48 hours as stated,"even after 48 hours, was confirmed"
same,Urine odor intensity After 1 hour,[3]; [4],1.3
same,Urine odor intensity After 24 hours,[3]; [4],1.5
same,Urine odor intensity After 48 hours,[3]; [4],1.9
